Source: ChEMBL document CHEMBL1129876, “The synthesis and activity of spiroindane growth hormone secretagogues” (Bioorg Med Chem Lett, 1997)

What was measured:
[1] = species on record: Rattus norvegicus; experiment: The compound was evaluated for its ability to release growth hormone from rat pituitary cells.; type: functional, cell-based; conditions: Pituitary gland cell
[2] = system: Canis familiaris; experiment: Tested for response in dogs after peroral administration of 0.125 mg/kg; cured/treated is 1/2; type: functional, organism-based; parameters: dose 0.125 mg/kg; conditions: Canis lupus familiaris
[3] = system: Canis familiaris; experiment: Tested for response in dogs after peroral administration of 0.25 mg/kg; cured/treated is 2/2; type: functional, organism-based; parameters: dose 0.25 mg/kg; conditions: Canis lupus familiaris
[4] = system: Canis familiaris; experiment: Tested for response in dogs after iv administration of 0.025 mg/kg; cured/treated is 1/1; type: functional, organism-based; parameters: dose 0.025 mg/kg; conditions: Canis lupus familiaris
[5] = system: Canis familiaris; experiment: Tested for response in dogs after peroral administration of 0.5 mg/kg; cured/treated is 1/2; type: functional, organism-based; parameters: dose 0.5 mg/kg; conditions: Canis lupus familiaris
[6] = system: Canis familiaris; experiment: Tested for response in dogs after peroral administration of 1 mg/kg; cured/treated is 2/2; type: functional, organism-based; parameters: dose 1 mg/kg; conditions: Canis lupus familiaris
[7] = system: Canis familiaris; experiment: Tested for response in dogs after iv administration of 0.05 mg/kg; cured/treated is 1/1; type: functional, organism-based; parameters: dose 0.05 mg/kg; conditions: Canis lupus familiaris
[8] = system: Canis familiaris; experiment: Tested for response in dogs after iv administration of 0.1 mg/kg; cured/treated is 0/1; type: functional, organism-based; parameters: dose 0.1 mg/kg; conditions: Canis lupus familiaris
[9] = system: Canis familiaris; experiment: Tested for response in dogs after iv administration of 0.05 mg/kg; cured/treated is 0/1; type: functional, organism-based; parameters: dose 0.05 mg/kg; conditions: Canis lupus familiaris
[10] = system: Canis familiaris; experiment: Tested for response in dogs after oral administration of 2 mg/kg; cured/treated is 0/1; type: functional, organism-based; parameters: dose 2 mg/kg; conditions: Canis lupus familiaris
[11] = system: Canis familiaris; experiment: Tested for response in dogs after iv administration of 0.1 mg/kg; cured/treated is 1/1; type: functional, organism-based; parameters: dose 0.1 mg/kg; conditions: Canis lupus familiaris
[12] = system: Canis familiaris; experiment: Tested for response in dogs after oral administration of 1 mg/kg; cured/treated is 1/1; type: functional, organism-based; parameters: dose 1 mg/kg; conditions: Canis lupus familiaris
[13] = system: Canis familiaris; experiment: Tested for response in dogs after oral administration of 0.5 mg/kg; cured/treated is 1/2; type: functional, organism-based; parameters: dose 0.5 mg/kg; conditions: Canis lupus familiaris
[14] = system: Canis familiaris; experiment: Tested for response in dogs after oral administration of 1 mg/kg; cured/treated is 2/2; type: functional, organism-based; parameters: dose 1 mg/kg; conditions: Canis lupus familiaris
[15] = system: Canis familiaris; experiment: Tested for response in dogs after iv administration of 0.05 mg/kg; cured/treated is 1/2; type: functional, organism-based; parameters: dose 0.05 mg/kg; conditions: Canis lupus familiaris

With `CC(C)(N)C(=O)N[C@H](Cc1c[nH]c2ccccc12)C(=O)N1CCC2(CC1)c1ccccc1C(O)C2O` (stereo partly specified) the EC50 [1] was 30 nM.

For `CC(C)(N)C(=O)N[C@H](CCCc1ccccc1)C(=O)N1CCC2(CC1)CC(=O)c1ccccc12`, the EC50 [1] was 0.8 nM, the Response [2] was “cured/treated is 1/1” and the Response [3] was “cured/treated is 1/1”. For the same compound, the Response [4] was “cured/treated is 1/1”.

`CC(C)(N)C(=O)N[C@H](COCc1ccccc1)C(=O)N1CCC2(CC1)CC(O)c1ccccc12` (stereo partly specified) showed an EC50 [1] of 4 nM.

In the case of `CC(C)(N)C(=O)N[C@H](Cc1c[nH]c2ccccc12)C(=O)N1CCC2(CC1)CC(O)c1ccccc12` (stereo partly specified), the EC50 [1] is reported as 0.6 nM, the Response [5] is reported as “cured/treated is 1/1” and the Response [6] is reported as “cured/treated is 1/1”. For the same compound, the Response [7] was “cured/treated is 1/1”.

Work on `CC(C)(N)C(=O)N[C@H](Cc1c[nH]c2ccccc12)C(=O)N1CCC2(CC1)c1ccccc1CC2O` (stereo partly specified) yielded an EC50 [1] of 65 nM.

In the case of `CC(C)(N)C(=O)N[C@H](COCc1ccccc1)C(=O)N1CCC2(CC1)CC(=O)c1ccccc12`, the EC50 [1] is reported as 4.8 nM.

`CC(C)(N)C(=O)N[C@H](CCCc1ccccc1)C(=O)N1CCC2(CC1)CC(O)c1ccccc12` (stereo partly specified) gave an EC50 [1] of 0.72 nM.

`CC(C)(N)C(=O)N[C@H](CCCc1ccccc1)C(=O)N1CCC2(CCc3ccccc32)CC1` was tested, and the EC50 [1] was 10 nM, the Response [5] was “cured/treated is 0/1” and the Response [6] was “cured/treated is 0/1”. For the same compound, the Response [8] was “cured/treated is 0/1”.

`CC(C)(N)C(=O)N[C@H](Cc1c[nH]c2ccccc12)C(=O)N1CCC2(CCc3ccccc32)CC1` was tested, and the Response [9] was “cured/treated is 0/1”, the Response [10] was “cured/treated is 0/1” and the Response [11] was “cured/treated is 0/1”. The Response [12] was “cured/treated is 0/1”.

`CC(C)(N)C(=O)N[C@H](COCc1ccccc1)C(=O)N1CCC2(CCc3ccccc32)CC1` was tested, and the EC50 [1] was 17 nM.

In the case of `CC(C)(N)C(=O)N[C@H](Cc1c[nH]c2ccccc12)C(=O)N1CCC2(CC1)CC(=O)c1ccccc12`, the Response [13] is reported as “cured/treated is 1/2”, the EC50 [1] is reported as 1.2 nM and the Response [14] is reported as “cured/treated is 1/2”. For the same compound, the Response [15] was “cured/treated is 1/2”.
